Here are results for four molecules from ChEMBL document CHEMBL3244106, “Antidepressant agents. 9. 3,3-Diphenylcyclobutylamines, a new class of central stimulants” (J Med Chem, 1978).

SMILES strings stand for the structures. Calls of active or inactive are those of the source. The rule behind the calls is not given here.

In data set [1] the test system is Mus musculus. The data set is described as follows: Antidepressant activity in NMRI albino mouse assessed as increase in locomotion at 20 mg/kg, ip after 2 hrs relative to vehicle-treated control. The class given is functional, organism-based. Also noted: dose 20 mg/kg.
Data set [2] relates to Mus musculus. Briefly: Antidepressant activity in NMRI albino mouse assessed as hyperactivity by measuring motor excitation at 20 mg/kg, ip after 2 hrs relative to vehicle-treated control. The class given is functional, organism-based. Also noted: dose 20 mg/kg.
Data set [3] deals with Mus musculus. Briefly: Antidepressant activity in NMRI albino mouse assessed as hyperactivity by measuring irritability at 20 mg/kg, ip after 2 hrs relative to vehicle-treated control. The data set is classed as functional, organism-based. Also noted: dose 20 mg/kg.
Data set [4] relates to Mus musculus. Briefly: Antidepressant activity in NMRI albino mouse assessed as hyperactivity by measuring sniffing at 20 mg/kg, ip after 2 hrs relative to vehicle-treated control. Also noted: dose 20 mg/kg. The class given is functional, organism-based.
Data set [5] deals with Mus musculus. The data set is described as follows: Antidepressant activity in NMRI albino mouse assessed as hyperactivity by measuring tremor at 20 mg/kg, ip after 2 hrs relative to vehicle-treated control. The data set is classed as functional, organism-based. Also noted: dose 20 mg/kg.
The subject of data set [6] is Mus musculus. The data set is described as follows: Antidepressant activity in NMRI albino mouse assessed as hyperactivity by measuring rearing at 20 mg/kg, ip after 2 hrs relative to vehicle-treated control. The class given is functional, organism-based. Also noted: dose 20 mg/kg.
The subject of data set [7] is Mus musculus. Briefly: Antidepressant activity in NMRI albino mouse assessed as hyperactivity by measuring circling of head at 20 mg/kg, ip after 2 hrs relative to vehicle-treated control. The class given is functional, organism-based. Also noted: dose 20 mg/kg.
For data set [8], the system named is Mus musculus. Briefly: Antidepressant activity in NMRI albino mouse assessed as hyperactivity by measuring repetitive movements of head at 20 mg/kg, ip after 2 hrs relative to vehicle-treated control. The data set is classed as functional, organism-based. Also noted: dose 20 mg/kg.
In data set [9] the target is Sodium-dependent noradrenaline transporter (Mus musculus, UniProt O55192).
Sequence of Sodium-dependent noradrenaline transporter (O55192 whole entry): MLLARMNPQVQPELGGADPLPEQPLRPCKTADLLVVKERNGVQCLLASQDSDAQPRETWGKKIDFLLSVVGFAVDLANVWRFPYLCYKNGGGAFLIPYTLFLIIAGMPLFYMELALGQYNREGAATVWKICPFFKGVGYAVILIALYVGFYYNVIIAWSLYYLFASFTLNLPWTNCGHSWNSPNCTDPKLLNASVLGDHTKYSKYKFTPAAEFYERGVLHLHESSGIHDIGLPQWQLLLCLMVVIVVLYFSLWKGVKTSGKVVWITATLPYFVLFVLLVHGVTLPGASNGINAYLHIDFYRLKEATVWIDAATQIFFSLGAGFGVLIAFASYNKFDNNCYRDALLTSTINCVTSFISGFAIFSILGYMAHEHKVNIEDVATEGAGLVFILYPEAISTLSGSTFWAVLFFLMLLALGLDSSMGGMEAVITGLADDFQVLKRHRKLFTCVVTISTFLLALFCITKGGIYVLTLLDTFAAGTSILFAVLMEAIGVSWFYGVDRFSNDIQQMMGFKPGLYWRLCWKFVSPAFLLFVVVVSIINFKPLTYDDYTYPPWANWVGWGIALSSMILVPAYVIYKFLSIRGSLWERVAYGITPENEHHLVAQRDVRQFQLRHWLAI
Description: Inhibition of noradrenaline transporter in NMRI albino mouse brain assessed as [3H]NA accumulation in hypothalamus after 5 mins
In data set [10] the target is Sodium-dependent serotonin transporter (Mus musculus, UniProt Q60857).
Sequence of Sodium-dependent serotonin transporter (Q60857 whole entry): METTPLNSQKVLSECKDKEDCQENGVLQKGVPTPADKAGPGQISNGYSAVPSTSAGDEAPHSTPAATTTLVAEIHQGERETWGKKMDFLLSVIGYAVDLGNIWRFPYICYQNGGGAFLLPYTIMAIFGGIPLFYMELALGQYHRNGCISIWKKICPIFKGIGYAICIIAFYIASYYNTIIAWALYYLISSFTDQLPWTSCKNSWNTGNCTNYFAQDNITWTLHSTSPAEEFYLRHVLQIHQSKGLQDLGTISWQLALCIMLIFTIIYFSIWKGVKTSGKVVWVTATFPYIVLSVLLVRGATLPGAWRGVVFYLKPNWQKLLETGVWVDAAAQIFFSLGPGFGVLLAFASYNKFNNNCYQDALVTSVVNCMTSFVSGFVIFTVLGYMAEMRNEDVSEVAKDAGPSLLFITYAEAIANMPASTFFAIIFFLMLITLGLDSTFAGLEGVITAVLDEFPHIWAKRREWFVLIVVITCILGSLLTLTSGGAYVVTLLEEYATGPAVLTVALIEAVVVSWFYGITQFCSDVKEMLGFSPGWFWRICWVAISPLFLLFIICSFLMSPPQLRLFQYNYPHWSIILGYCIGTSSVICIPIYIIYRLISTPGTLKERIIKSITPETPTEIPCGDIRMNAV
The species named for data set [11] is Mus musculus.
Description: Mydriatic effect in iv dosed NMRI albino mouse assessed as concentration required to increase pupil diameter by 200%
A short description of data set [12]: in vivo. As to conditions: NMRI albino, mouse, iv.
Description: Acute toxicity in iv dosed NMRI albino mouse assessed as lethality up to 24 hrs
For data set [13], the species on record is Mus musculus. The data set is described as follows: animal or person. The following applies: NMRI, Hypothalamus, ip.
Data set [14] is filed under the species Mus musculus. Briefly: animal or person. The following applies: NMRI, Hypothalamus, ip. This is another data set of the same source.
Data set [15] is filed under the species Mus musculus. Briefly: animal or person. As to conditions: NMRI, Hypothalamus, ip. The source holds these as a separate data set.
The species entered for data set [16] is Mus musculus. Briefly: animal or person. The following applies: NMRI, ip.
Data set [17] has as its system Mus musculus. The data set is described as follows: Induction of hyperactivity in NMRI albino mouse at 20 mg/kg, ip in presence of pimozide. The class given is functional, organism-based. Also noted: dose 20 mg/kg.
The subject of data set [18] is Mus musculus. The data set is described as follows: Induction of hyperactivity in NMRI albino mouse at 20 mg/kg, ip in presence of phenoxybenzamine. The class given is functional, organism-based. Also noted: dose 20 mg/kg.
The test system of data set [19] is Mus musculus. Briefly: Induction of hyperactivity in NMRI albino mouse at 20 mg/kg, ip in presence of methergoline. The data set is classed as functional, organism-based. Also noted: dose 20 mg/kg.
Data set [20] relates to Mus musculus. Briefly: Induction of hyperactivity in NMRI albino mouse at 20 mg/kg, ip in presence of reserpine. The data set is classed as functional, organism-based. Also noted: dose 20 mg/kg.
Data set [21] concerns Mus musculus. Briefly: Induction of hyperactivity in NMRI albino mouse at 20 mg/kg, ip in presence of alpha-methyltyrosine. Also noted: dose 20 mg/kg. The data set is classed as functional, organism-based.

With `CNC1CC(c2ccccc2)(c2ccccc2)C1.Cl`, the outcome in data set [1], in [2], in [3], in [4], in [5] and in data set [6] was Active. In addition, the result in data set [7] and in [8] was Active. Besides, the values for the 50% inhibitory concentration (IC50) in data set [9] and in [10] were 0.8 µM and 3 µM, respectively. The molecule also had a PD200 in [11] of 9 µmol/kg. Besides, in [12], the median lethal dose (LD50) – broadly, the dose expected to kill half of the subjects tested – at 24 h stood at 128 µmol/kg. In addition, the 50% effective dose (ED50) – broadly, the dose that gives a 50% effect, or the effect in half of the subjects – in [13] was 31 µmol/kg; in [14], 95 µmol/kg; in [15], 91 µmol/kg; in data set [16], 9 µmol/kg.
In the case of `Cl.NC1CC(c2ccccc2)(c2ccccc2)C1`, the outcome in data set [1], in data set [2], in data set [3], in [4], in data set [5] and in data set [6] was Active. Moreover, the outcome in [7] and in data set [8] was Active. The concentration for half-maximal inhibition (IC50) – broadly, the point on the concentration scale where inhibition reaches its midpoint – in data set [9] is 2.2 µM; in data set [10], 2.8 µM. This molecule also yielded a PD200 in data set [11] of 15 µmol/kg. The molecule also came in with an LD50 at 24 h in [12] of 192 µmol/kg. Also, the ED50 in data set [13] was 103 µmol/kg; in data set [14], 162 µmol/kg; in data set [15], more than 154 µmol/kg; in [16], more than 38 µmol/kg.
For `CN(C)C1CC(c2ccccc2)(c2ccccc2)C1.Cl`, the result in [1], in data set [2], in data set [3], in [4], in [5] and in data set [6] was Active. For the same molecule, the outcome in [7], in data set [8], in data set [18], in data set [19] and in data set [21] was Active. For the same molecule, the outcome in data set [17] and in [20] was inactive. For the same molecule, the results for the concentration for half-maximal inhibition (IC50) in [9] and in [10] were 0.8 µM and 0.9 µM, respectively. Further, the PD200 in [11] stood at 24 µmol/kg. In data set [12], this molecule gave an LD50 at 24 h of 104 µmol/kg. Moreover, the 50% effective dose (ED50) is 32 µmol/kg in [13], 48 µmol/kg in [14], 104 µmol/kg in [15] and 17 µmol/kg in data set [16].
For `CN(C)CCCN1c2ccccc2CCc2ccc(Cl)cc21` [CLOMIPRAMINE], in data set [11], the PD200 worked out at 6 µmol/kg. The molecule also gave an LD50 at 24 h in data set [12] of 142 µmol/kg. In addition, the 50% effective dose (ED50) is 109 µmol/kg in data set [13], 20 µmol/kg in [14], more than 113 µmol/kg in [15] and 8 µmol/kg in data set [16].
